Measurements reported in patent US9499537B2, “Antiviral pyrrolopyridine derivatives and method for preparing the same” (KOREA RESEARCH INSTITUTE OF CHEMICAL TECHNOLOGY, priority 2011, dated 2016).

Tested on: MT-4 cells
Assay: Cytotoxicity test in MT-4 cells (MTT method)
Assay type: cell-based
Conditions: not given
Protocol: In order to look into the HIV-1 inhibition effects of the compound of the present invention, an in vitro test for HIV-1 inhibition effects was carried out as follows according to a known method (H. Tanaka et al., J. Med. Chem., 1991, 34, 349). MT-4 cells were used as host cells, and the degree of the compound of the present invention inhibiting the cytotoxicity of the virus-infected MT-4 cells was investigated.
First, MT-4 cells were diffused at a concentration of 1×10^4 cell/well to a culture medium, and HIV-1 was inoculated so that the concentration was 500 TCI50 (concentration at which 50% of the cell is infected)/well. Immediately after the inoculation, the cell dispersion was transferred in 100 μL each to a flat microtiter plate in which the sample of the compound of the present invention was placed. The sample was incubated for approximately for 4 to 5 days at […], and the virus suppression effect was determined using an MTT method. In addition, the cytotoxicity was also determined by measuring the survivability of the experimentally virus-infected cells using an MTT method. As a comparative compound, azidothymidine (AZT) and raltegravir were used.

SMILES	CC60 (μM) ** : concentration at 50% cell damage with respect to MT-4 cells [µM]
Cc1nc2c(c(C)c(C)n2C)c(-c2ccc3c(c2Cl)CCCO3)c1[C@H](OC(C)(C)C)C(=O)O [Example 72, (S)-2-(tert-butoxy)-2-((R)-4-(5-chlorochroman-6-yl)-1,2,3,6-tetramethyl-1H-pyrrolo[2,3-b]pyridin-5-yl)acetic acid]	16.18
Cc1nc2c(c(C)c(C)n2C)c(-c2cc(F)c3c(c2C)CCCO3)c1[C@H](OC(C)(C)C)C(=O)O [Example 74, (S)-2-(Tert-butoxy)-2-((R)-4-(8-fluoro-5-methylchroman-6-yl)-1,2,3,6-tetramethyl-1H-pyrrolo[2,3-b]pyridin-5-yl)acetic acid]	23.92
Cc1nc2c(c(C)c(C)n2C)c(-c2cc(F)c3c(c2C)CCCO3)c1[C@H](OC(C)(C)C)C(=O)O [Example 75, (S)-2-(tert-butoxy)-2-((S)-4-(8-fluoro-5-methylchroman-6-yl)-1,2,3,6-tetramethyl-1H-pyrrolo[2,3-b]pyridin-5-yl)acetic acid]	37.22

Same assay, conditions: human

SMILES	CC60 (μM) ** : concentration at 50% cell damage with respect to MT-4 cells [µM]
Cc1nc2c(c(C)c(C)n2Cc2cccnc2)c(-c2ccc(Cl)cc2)c1[C@H](OC(C)(C)C)C(=O)O [Example 53, (S)-2-(Tert-butoxy)-2-(4-(4-chlorophenyl)-2,3,6-trimethyl-1-(pyridin-3-ylmethyl)-1H-pyrrolo[2,3-b]pyridin-5-yl)acetic acid]	53.33
Cc1nc2c(c(C)c(C)n2CCF)c(-c2ccc(Cl)cc2)c1[C@H](OC(C)(C)C)C(=O)O [Example 54, (S)-2-(Tert-butoxy)-2-(4-(4-chlorophenyl)-1-(2-fluoroethyl)-2,3,6-trimethyl-1H-pyrrolo[2,3-b]pyridin-5-yl)acetic acid]	18.82
Cc1nc2c(c(C)c(C)n2Cc2cncnc2)c(-c2ccc(Cl)cc2)c1[C@H](OC(C)(C)C)C(=O)O [Example 55, (S)-2-(Tert-butoxy)-2-(4-(4-chlorophenyl)-2,3,6-trimethyl-1-(pyrimidin-5-ylmethyl)-1H-pyrrolo[2,3-b]pyridin-5-yl)acetic acid]	64.73
Cc1nc2c(c(C)c(C)n2Cc2cocn2)c(-c2ccc(Cl)cc2)c1[C@H](OC(C)(C)C)C(=O)O [Example 56, (S)-2-(Tert-butoxy)-2-(4-(4-chlorophenyl)-2,3,6-trimethyl-1-(oxazol-4-ylmethyl)-1H-pyrrolo[2,3-b]pyridin-5-yl)acetic acid]	24.56
Cc1nc2c(c(C)c(C)n2CC(=O)O)c(-c2ccc(Cl)cc2)c1[C@H](OC(C)(C)C)C(=O)O [Example 57, (S)-2-(Tert-butoxy)-2-(1-carboxymethyl)-(4-(4-chlorophenyl)-2,3,6-trimethyl-1H-pyrrolo[2,3-b]pyridin-5-yl)acetic acid]	>217.9
Cc1nc2c(c(C)c(C)n2CC(F)(F)F)c(-c2ccc(Cl)cc2)c1[C@H](OC(C)(C)C)C(=O)O [Example 59, (S)-2-(Tert-butoxy)-2-(4-(4-chlorophenyl)-2,3,6-trimethyl-1-(2,2,2-trifluoromethyl)-1H-pyrrolo[2,3-b]pyridin-5-yl)acetic acid]	5.3
Cc1nc2c(c(C)c(C)n2CCCC#N)c(-c2ccc(Cl)cc2)c1[C@H](OC(C)(C)C)C(=O)O [Example 60, (S)-2-(Tert-butoxy)-2-(4-(4-chlorophenyl)-1-(3-cyanopropyl)-2,3,6-trimethyl-1H-pyrrolo[2,3-b]pyridin-5-yl)acetic acid]	18.23
Cc1nc2c(c(C)c(C)n2Cc2cccc(C#N)c2)c(-c2ccc(Cl)cc2)c1[C@H](OC(C)(C)C)C(=O)O [Example 61, (S)-2-(Tert-butoxy)-2-(4-(4-chlorophenyl)-1-(3-cyanobenzyl)-2,3,6-trimethyl-1H-pyrrolo[2,3-b]pyridin-5-yl)acetic acid]	9.43
Cc1nc2c(c(C)c(C)n2Cc2ccoc2)c(-c2ccc(Cl)cc2)c1[C@H](OC(C)(C)C)C(=O)O [Example 62, (S)-2-(Tert-butoxy)-2-(4-(4-chlorophenyl)-1-(furan-3-ylmethyl)-2,3,6-trimethyl-1H-pyrrolo[2,3-b]pyridin-5-yl)acetic acid]	15.34
Cc1nc2c(c(C)c(C)n2Cc2cncs2)c(-c2ccc(Cl)cc2)c1[C@H](OC(C)(C)C)C(=O)O [Example 63, (S)-2-(Tert-butoxy)-2-(4-(4-chlorophenyl)-2,3,6-trimethyl-1-(thiazol-5-ylmethyl)-1H-pyrrolo[2,3-b]pyridin-5-yl)acetic acid]	38.3
Cc1nc2c(c(C)c(C)n2Cc2nccs2)c(-c2ccc(Cl)cc2)c1[C@H](OC(C)(C)C)C(=O)O [Example 64, (S)-2-(Tert-butoxy)-2-(4-(4-chlorophenyl)-2,3,6-trimethyl-1-(thiazol-2-ylmethyl)-1H-pyrrolo[2,3-b]pyridin-5-yl)acetic acid]	48.57
Cc1nc2c(c(C)c(C)n2CCN(C)C)c(-c2ccc(Cl)cc2)c1[C@H](OC(C)(C)C)C(=O)O [Example 65, (S)-2-(Tert-butoxy)-2-(4-(4-chlorophenyl)-1-(2-dimethylaminoethyl)-2,3,6-trimethyl-1H-pyrrolo[2,3-b]pyridin-5-yl)acetic acid]	70.86
Cc1nc2c(c(C)c(C)n2Cc2ccnc(F)c2)c(-c2ccc(Cl)cc2)c1[C@H](OC(C)(C)C)C(=O)O [Example 66, (S)-2-(Tert-butoxy)-2-(4-(4-chlorophenyl)-1-((2-fluoropyridin-4-yl)methyl)-2,3,6-trimethyl-1H-pyrrolo[2,3-b]pyridin-5-yl)acetic acid]	14.55
Cc1nc2c(c(C)c(C)n2Cc2ccc(F)nc2)c(-c2ccc(Cl)cc2)c1[C@H](OC(C)(C)C)C(=O)O [Example 67, (S)-2-(Tert-butoxy)-2-(4-(4-chlorophenyl)-1-((6-fluoropyridin-3-yl)methyl)-2,3,6-trimethyl-1H-pyrrolo[2,3-b]pyridin-5-yl)acetic acid]	13.65
Cc1nc2c(c(C)c(C)n2Cc2cccnc2F)c(-c2ccc(Cl)cc2)c1[C@H](OC(C)(C)C)C(=O)O [Example 68, (S)-2-(Tert-butoxy)-2-(4-(4-chlorophenyl)-1-((2-fluoropyridin-3-yl)methyl)-2,3,6-trimethyl-1H-pyrrolo[2,3-b]pyridin-5-yl)acetic acid]	17.14
Cc1nc2c(c(C)c(C)n2CC2CC2(F)F)c(-c2ccc(Cl)cc2)c1[C@H](OC(C)(C)C)C(=O)O (stereo partly drawn) [Example 69, (S)-2-(Tert-butoxy)-2-(4-(4-chlorophenyl)-1-((2,2-difluorocyclopropyl)methyl)-2,3,6-trimethyl-1H-pyrrolo[2,3-b]pyridin-5-yl)acetic acid]	17.55
Cc1nc2c(c(C)c(C)n2CCN2CCCC2=O)c(-c2ccc(Cl)cc2)c1[C@H](OC(C)(C)C)C(=O)O [Example 70, (S)-2-(Tert-butoxy)-2-(4-(4-chlorophenyl)-2,3,6-trimethyl-1-(2-(2-oxopyrrolidin-1-yl)ethyl)-1H-pyrrolo[2,3-b]pyridin-5-yl)acetic acid]	49.2
Cc1nc2c(c(C)c(C)n2CCN2CCCC2)c(-c2ccc(Cl)cc2)c1[C@H](OC(C)(C)C)C(=O)O [Example 71]	73.54
Cc1nc2c(c(C)c(C)n2C)c(-c2ccc3c(c2Cl)CCCO3)c1[C@H](OC(C)(C)C)C(=O)O [Example 73, (S)-2-(tert-butoxy)-2-((S)-4-(5-chlorochroman-6-yl)-1,2,3,6-tetramethyl-1H-pyrrolo[2,3-b]pyridin-5-yl)acetic acid]	25.1
Cc1nc2c(c(C)c(C)n2CC2CC2)c(-c2cc(F)c3c(c2C)CCCO3)c1[C@H](OC(C)(C)C)C(=O)O [Example 76, (S)-2-(Tert-butoxy)-2-((R)-1-(cyclopropylmethyl)-4-((R)-8-fluoro-5-methylchroman-6-yl)-2,3,6-trimethyl-1H-pyrrolo[2,3-b]pyridin-5-yl)acetic acid]	13.94
Cc1nc2c(c(C)c(C)n2Cc2cnccn2)c(-c2ccc(Cl)cc2)c1[C@H](OC(C)(C)C)C(=O)O [Example 77, (S)-2-(Tert-butoxy)-2-(4-(4-chlorophenyl)-2,3,6-trimethyl-1-(pyrazin-2-ylmethyl)-1H-pyrrolo[2,3-b]pyridin-5-yl)acetic acid]	38.86
COCCn1c(C)c(C)c2c(-c3ccc(Cl)cc3)c([C@H](OC(C)(C)C)C(=O)O)c(C)nc21 [Example 78, (S)-2-(tert-butoxy)-2-(4-(4-chlorophenyl)-1-(2-methoxyethyl)-2,3,6-trimethyl-1H-pyrrolo[2,3-b]pyridin-5-yl)acetic acid]	18.36
Cc1nc2c(c(C)c(C)n2Cc2ccn(C)n2)c(-c2ccc(Cl)cc2)c1[C@H](OC(C)(C)C)C(=O)O [Example 79, (S)-2-(tert-butoxy)-2-(4-(4-chlorophenyl)-2,3,6-trimethyl-1-((1-methyl-1H-pyrazol-3-yl)methyl)-1H-pyrrolo[2,3-b]pyridin-5-yl)acetic acid]	25.09
